{"source": "patent US20060182688A1", "about": "“Metronidazole-based tinted topical pharmaceutical compositions” (GALDERMA S.A., priority 2003, published 2006)", "origin": "cited, not measured here", "tested_on": "rosacea"}
{"molecule": "Cc1ncc([N+](=O)[O-])n1CCO", "note": "[metronidazole, 1-(2-hydroxyethyl)-2-methyl-5-nitroimidazole]", "values": [{"measurement": "effect on erythema", "setting": "200 mg twice a day", "result": "ineffective"}, {"measurement": "effect on the papules and pustules of rosacea", "setting": "200 mg twice a day", "result": "had therapeutic effects"}, {"measurement": "action on the clinical signs such as erythema, telangiectasia or redness", "setting": "rosacea", "result": "no action"}, {"measurement": "effect against the papules and pustules", "setting": "rosacea", "result": "effective"}, {"measurement": "effect on the inflammatory lesions", "setting": "rosacea", "result": "effectively improves"}]}
